Tests used:
bovine nasal cartilage = test: Bovine nasal cartilage assay: inhibition of IL-1β-induced proteoglycan loss (chondroitin sulfate by 1,9 DMB); assay type: cell-based; conditions: Bos taurus; concentration preventing 50% of proteoglycan loss; IL-1β-stimulated cartilage plugs
Description: The BNC (bovine nasal cartilage) assay provides a model for evaluating chrondroprotective compounds that block cartilage degradation through inhibition of enzyme activity or by altering the gene expression of the matrix metalloproteinases such as stromelysin.
The assay is accomplished in two phases. The cartilage plugs are first incubated with IL-1β in the presence of the compounds of the present method. The amount of proteoglycan released is then quantified by measuring chondroitin sulfate present in the media using the 1,9-Dimethylmethylene Blue Assay (1,9 DMB).
Bovine nasal septum is dissected free of surrounding tissue and wiped with 70% alcohol. A sterile cork borer is used to remove 5-mm cartilage disks of 2- to 3-mm thickness. Explants are equilibrated for 96 hours in F-12 supplemented with 10% fetal calf serum (FCS) and antibiotics at 37° C. in a humidified atmosphere of 95% air and 5% CO2. Explants are then rinsed with 1 mL F-12 Nutrient Mixture (without phenol red) in order to remove traces of FCS. Each treatment group is done in triplicate allowing: controls (500 μL F-12 medium +110 μL PBS with 0.1% BSA +7 μL DMSO); IL-1β (500 μL F-12 medium without phenol red +100 μL IL-1β (500 U) +7 μL DMSO +10 μL PBS with 0.1% BSA); and dose responses (10, 1, and 0.1 μM) (F-12 medium without phenol red +100 μL IL-1β (500 U) +7 μL compound dissolved in DMSO +10 μL PBS with 0.1% BSA), to be tested per each 24-well plate. The cartilage plugs are incubated in the presence of conditioned media (IL-1β+compound) for 48 hours. Fresh unconditioned media (no IL-1β or compound) is added and incubated for an additional 24 hours. Both the conditioned and unconditioned media are collected and saved for analysis using the 1,9 DMB assay.
The ability of a compound to inhibit proteoglycan released from the cartilage plugs is quantified by measuring chondroitin sulfate. This is done using the calorimetric 1,9 DMB assay. Depending on the amount of chondroitin sulfate present in the media a color change will occur turning the normally deep blue dye, vivid pink. This color change is measured using a Titertek Multiscan MCC 340 plate reader at 540 nm. A Cetus Pro/Pette is used to speed dilution and pipetting steps. The Cetus uses Sarstedt vials, designed for radioimmune assays, which have been inserted into Sarstedt 96-vial aluminum racks. The first row of 12 slots is left empty in order to accommodate the chondroitin sulfate standards (0.01-0.32 μg/mL shark chondroitin sulfate in 0.1 M phosphate buffer, pH 7.0, containing 0.01 M L-cysteine HCl and 0.05 M EDTA). It is necessary to dilute (1:5, 1:10) the medium before a […] is performed by adding 10 μL of collected media to 290 μL DMF (16 mg dye/1 L of 0.1 M formate buffer, pH 3.5, containing 5 mL ethanol) and reading at […]. Dilutions are performed on both the 48-hour and 72-hour media samples collected and saved earlier. Once the experiment has been completed, in order to determine the total amount of proteoglycan remaining in the plugs, they are subjected to papain digestion. Cartilage explants are digested in 20-mL glass scintillation vials by adding 50 μL papain in 1.0 mL cysteine buffer (0.01 M phosphate buffer, pH 7.0 containing 0.01 M L-cysteine HCl and 0.05 M EDTA). Digested material is diluted (1:60) and chondroitin sulfate values determined using the 1,9 DMB assay.
Determination of chondroitin sulfate in each sample is accomplished by subtracting the constant value determined from the linear regression performed on the standard curve, from the O.D. value for a particular well, and then dividing by the X coefficient calculated from the linear regression done on the standard curve. Each experimental well is split into two samples for determining chondroitin sulfate values, then the two are averaged. […]

cartilage = test: Rabbit model of IL-1α-induced cartilage degradation (intra-articular injection, knee joint); assay type: in vivo; conditions: for Proteoglycan Loss (% Control): 24 hours (IL-1α alone 35.40 ± 3.12)
Description: Rabbits (3.0-3.2 kg) were obtained from Hazelton (Denver, Pa.); Xylazine from W. A. Butler (Columbus, Ohio); Rompun from Miles Inc, (Shawnee Mission, Kans.); Ketamine HCl from Aveco (Fort Dodge Labs, Fort Dodge, Iowa); Pentobarbital from Western Medical Supply (Acadia, Calif.); human recombinant Interleukin-1α (IL-1α) from Genzyme (Cambridge, Mass.); Cetus Pro/Pette (Perkin Elmer, Norwalk, Conn.); Biomek 1000 (Beckman, Fullerton, Calif.).
The assay was performed in two phases. The hind leg knee joints were first injected with IL-1α and compound for 24 hours. The proteoglycan content of cartilage was then quantified by measuring chondroitin sulfate present using the 1,9-Dimethylmethylene Blue Assay (DMB).
Each treatment was done in quadruplicate, necessitating twelve animals per study. Rabbits were anesthetized by injecting intramuscularly 0.9 mL Rompun combined with 1.8 mL Ketoset. Hind leg knee area was shaved and wiped with 70% EtOH and both drug and IL-1α were injected intra-articulary (27-gauge needle) in succession.
0.5 mL DMSO/Saline and 0.5 mL PBS/0.2% FCS.
0.5 mL DMSO/Saline containing 8 μg Compound 1 and 2500 U/0.5 mL IL-1α.
0.5 mL DMSO/Saline containing 8 μg Compound 1 and 0.5 mL PBS/0.2% FCS.
0.5 mL DMSO/Saline containing 24 μg Compound 1 and 0.5 mL IL-1α.
0.5 mL DMSO/Saline containing 24 μg Compound 1 and 0.5 mL PBS/0.2% FCS. […]
The ability of a compound to inhibit proteoglycan release from cartilage pieces was quantified by measuring chondroitin sulfate. […] This color change was measured using a Titertek Multiscan MCC 340 plate reader at 540 nm. […] The DMB assay was performed by adding 10 μL of samples to 290 μL DMB (16 mg dye/L of 0.1 M formate buffer, pH 3.5, containing 5 mL ethanol) and reading at 540 nm. Once the experiment was completed the total amount of proteoglycan remaining in the cartilage pieces was determined by digesting cartilage samples with papain and then performing 1,9 DMB assay on the digest. […] Digested material was diluted (1:5, 1:10, 1:20) and chondroitin sulfate values determined using the 1,9 DMB assay.

S=c1[nH]nc(-c2ccccc2Nc2ccccc2)o1 [Compound 1, 5-(2-Phenylamino-phenyl)-3H-[1,3,4]oxadiazole-2-thione]
IC50 (bovine nasal cartilage): 830 nM
Proteoglycan Loss (% Control) (cartilage; 8 μg/jt with IL-1α): 18.78 ± 10.98 % Control
Proteoglycan Loss (% Control) (cartilage; 24 μg/jt with IL-1α, * significantly different from IL-1α alone): 9.35 ± 7.26 % Control
inhibiting cartilage degradation (cartilage; 8 and 24 μg/joint, 24 hours): effective in inhibiting cartilage degradation in a dose-dependent manner
